In US20200339691A1, “PROTEINACEOUS MOLECULES AND USES THEREFOR” (priority 2018, published 2020):
Where a SMILES comes first, the peptide text is derived from it. The star is where a group is joined. Myristoyl = CCCCCCCCCCCCCC(=O)*

Experiments:
MDA-MB-231 cells = assay type: cell-based, human; conditions: 50 μM peptide, 48 hours, n = 1
Excerpt: (§1) Non-adherent cells were removed during the washing steps.

[1] = tested on: CD44^hiCD24^lo CSCs in MDA-MB-231 cells; assay: FACS analysis of CD44^hiCD24^lo cancer stem cells in MDA-MB-231 cells treated with P1 analogues; assay type: cell-based, human; conditions: 50 μM peptide, 48 hours; for CD44^hiCD24^lo CSCs (%) / COI, Live Single CD44^hiCD24^lo CSCs (Cell Count): n = 1; for Average Inhibition of CSCs (%) / CD44^hiCD24^lo CSCs (%) Repeat 1 / CD44^hiCD24^lo CSCs (%) Repeat 2 / CD44^hiCD24^lo CSCs (%) Repeat 3: n = 3
Procedure: Analogues of P1 (Table 6) were designed and synthesized in accordance with the procedure of Example 5. The ability of these analogues to inhibit cancer stem cells was determined using FACS analysis on MDA-MB-231 cells, which constitutively contain approximately 90% CD44^hiCD24^lo cancer stem cells, treated with the peptides.
as §1
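For COI, Live Single Cells (Cell Count) in this document: live means Hoechst-negative events among single cells.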

Structure (SMILES)	COI (Cell Count) (MDA-MB-231 cells)	COI, Live Single Cells (Cell Count) (MDA-MB-231 cells)	COI, Single (Cell Count) (MDA-MB-231 cells)	Total Cell Count (MDA-MB-231 cells)	Inhibition of CSCs (%) Repeat 1 [1] [%]	Inhibition of CSCs (%) Repeat 2 [1] [%]	Inhibition of CSCs (%) Repeat 3 [1] [%]	CD44^hiCD24^lo CSCs (%) [1] [%]	COI, Live Single CD44^hiCD24^lo CSCs (Cell Count) [1]	Average Inhibition of CSCs (%) [1] [%]	CD44^hiCD24^lo CSCs (%) Repeat 1 [1] [%]	CD44^hiCD24^lo CSCs (%) Repeat 2 [1] [%]	CD44^hiCD24^lo CSCs (%) Repeat 3 [1] [%]
CCCCCCCCCCCCCC(=O)N[C@@H](CC(C)C)C(=O)N[C@H](C(=O)N[C@@H](Cc1ccccc1)C(=O)N[C@H](C(=O)N[C@@H](Cc1ccccc1)C(=O)N[C@@H](CCCNC(=N)N)C(=O)N[C@@H](CC(C)C)C(=O)N[C@@H](CCCNC(=N)N)C(=O)N[C@@H](CCCCN)C(=O)N[C@H](C(=O)N[C@@H](CCCNC(=N)N)C(=O)N[C@@H](CCSC)C(=O)N[C@@H](CCSC)C(=O)N[C@@H](CC(=O)O)C(=O)N[C@H](C(=O)N[C@@H](CCCCN)C(=O)N[C@@H](CCCCN)C(N)=O)C(C)C)C(C)C)[C@@H](C)CC)[C@@H](C)O [Peptide 2853829, Myristoyl-LTFIFRLRKVRMMDVKK-NH2] (Myristoyl-LTFIFRLRKVRMMDVKK-NH2)	167	68	131	10000	89.50	91.73	94.67	5.88	4	91.97	9.41	7.42	4.79
CCCCCCCCCCCCCC(=O)N[C@@H](CC(C)C)C(=O)N[C@H](C(=O)N[C@@H](Cc1ccccc1)C(=O)N[C@H](C(=O)N[C@@H](Cc1ccccc1)C(=O)N[C@@H](CCCNC(=N)N)C(=O)N[C@@H](CC(C)C)C(=O)N[C@@H](CCCNC(=N)N)C(=O)N[C@@H](CCCCN)C(=O)NCC(=O)N[C@@H](CCCNC(=N)N)C(=O)N[C@@H](CCSC)C(=O)N[C@@H](CCSC)C(=O)N[C@@H](CC(=O)O)C(=O)N[C@H](C(=O)N[C@@H](CCCCN)C(=O)N[C@@H](CCCNC(=N)N)C(N)=O)C(C)C)[C@@H](C)CC)[C@@H](C)O [Peptide 2853844, Myristoyl-LTFIFRLRKGRMMDVKR-NH2] (Myristoyl-LTFIFRLRKGRMMDVKR-NH2)	147	66	101	2094	80.13	89.73	78.08	10.61	7	82.65	17.81	9.21	19.67
CCCCCCCCCCCCCC(=O)N[C@@H](CC(C)C)C(=O)N[C@@H](CCC(=O)O)C(=O)N[C@@H](Cc1ccccc1)C(=O)N[C@H](C(=O)N[C@@H](Cc1ccccc1)C(=O)N[C@@H](CCCNC(=N)N)C(=O)N[C@@H](CC(C)C)C(=O)N[C@@H](CCCNC(=N)N)C(=O)N[C@@H](CCCCN)C(=O)NCC(=O)N[C@@H](CCCNC(=N)N)C(=O)N[C@@H](CCSC)C(=O)N[C@@H](CCSC)C(=O)N[C@@H](CC(=O)O)C(=O)N[C@H](C(=O)N[C@@H](CCCCN)C(=O)N[C@@H](CCCCN)C(N)=O)C(C)C)[C@@H](C)CC [Peptide 2853804, Myristoyl-LEFIFRLRKGRMMDVKK-NH2] (Myristoyl-LEFIFRLRKGRMMDVKK-NH2)	360	138	203	1384	85.86	80.73	86.58	13.77	19	84.39	12.67	17.29	12.05
CCCCCCCCCCCCCC(=O)N[C@H](C(=O)N[C@@H](Cc1ccccc1)C(=O)N[C@H](C(=O)N[C@@H](Cc1ccccc1)C(=O)N[C@@H](CCCNC(=N)N)C(=O)N[C@@H](C)C(=O)N[C@@H](CCCNC(=N)N)C(=O)N[C@@H](CCCCN)C(=O)NCC(=O)N[C@@H](CCCNC(=N)N)C(=O)N[C@@H](CCSC)C(=O)N[C@@H](CCSC)C(=O)N[C@@H](CC(=O)O)C(=O)N[C@H](C(=O)N[C@@H](CCCCN)C(=O)N[C@@H](CCCCN)C(N)=O)C(C)C)[C@@H](C)CC)[C@@H](C)O [Peptide 2815307, Myristoyl-TFIFRARKGRMMDVKK-NH2] (Myristoyl-TFIFRARKGRMMDVKK-NH2)	182	137	164	10681	24.79	25.54	36.94	62.77	86	29.09	67.40	66.80	56.59
CCCCCCCCCCCCCC(=O)N[C@@H](CC(C)C)C(=O)N[C@H](C(=O)N[C@@H](Cc1ccccc1)C(=O)N[C@H](C(=O)N[C@@H](Cc1ccccc1)C(=O)N[C@@H](CCCNC(=N)N)C(=O)N[C@@H](CC(C)C)C(=O)N[C@@H](CCCNC(=N)N)C(=O)N[C@@H](CCCCN)C(=O)NCC(=O)N[C@@H](CCCNC(=N)N)C(=O)N[C@@H](CCSC)C(=O)N[C@@H](CCSC)C(=O)N[C@@H](CC(=O)O)C(=O)N[C@H](C(=O)N[C@@H](CCC(=O)O)C(=O)N[C@@H](CCCCN)C(N)=O)C(C)C)[C@@H](C)CC)[C@@H](C)O [Peptide 2853841, Myristoyl-LTFIFRLRKGRMMDVEK-NH2] (Myristoyl-LTFIFRLRKGRMMDVEK-NH2)	2072	1289	1594	6480	78.06	79.59	80.30	11.40	147	79.32	19.67	18.31	17.67
CCCCCCCCCCCCCC(=O)N[C@@H](CC(C)C)C(=O)N[C@@H](CC(C)C)C(=O)N[C@@H](Cc1ccccc1)C(=O)N[C@H](C(=O)N[C@@H](Cc1ccccc1)C(=O)N[C@@H](CCCNC(=N)N)C(=O)N[C@@H](CC(C)C)C(=O)N[C@@H](CCCNC(=N)N)C(=O)N[C@@H](CCCCN)C(=O)NCC(=O)N[C@@H](CCCNC(=N)N)C(=O)N[C@@H](CCSC)C(=O)N[C@@H](CCSC)C(=O)N[C@@H](CC(=O)O)C(=O)N[C@H](C(=O)N[C@@H](CCCCN)C(=O)N[C@@H](CCCCN)C(N)=O)C(C)C)[C@@H](C)CC [Peptide 2853806, Myristoyl-LLFIFRLRKGRMMDVKK-NH2] (Myristoyl-LLFIFRLRKGRMMDVKK-NH2)	3997	3659	3696	4893	4.36	9.44	10.85	91.86	3361	8.22	85.71	81.25	80.00
CCCCCCCCCCCCCC(=O)N[C@H](C(=O)N[C@@H](Cc1ccccc1)C(=O)N[C@H](C(=O)N[C@@H](Cc1ccccc1)C(=O)N[C@@H](CCCNC(=N)N)C(=O)N[C@@H](CC(C)C)C(=O)N[C@@H](CCCNC(=N)N)C(=O)N[C@@H](CCCCN)C(=O)NCC(=O)N[C@@H](CCCNC(=N)N)C(=O)N[C@@H](CCSC)C(=O)N[C@@H](CCSC)C(=O)N[C@@H](CC(=O)O)C(=O)N[C@@H](C)C(=O)N[C@@H](CCCCN)C(=O)N[C@@H](CCCCN)C(N)=O)[C@@H](C)CC)[C@@H](C)O [Peptide 2815315, Myristoyl-TFIFRLRKGRMMDAKK-NH2] (Myristoyl-TFIFRLRKGRMMDAKK-NH2)	51	16	41	12122	86.74	82.99	83.97	18.75	3	84.57	11.89	15.26	14.39
